From patent US9428507B2, “Compounds for the treatment of malaria” (The Broad Institute, Inc., priority 2013, dated 2016) come the findings set out here.

The test system of one test is Dd2 strain of P. falciparum. The experiment in a line: Activity against the Dd2 strain of P. falciparum (SYBR Green I, 72-h incubation). Type of test: cell-based. The note with it: Plasmodium falciparum, DD2, 72 h, read-out: EC^50 Dd2. On the procedure: The Dd2 strain of P. falciparum was cultured in complete medium (RPMI with L-glutamine, 4.3% heat-inactivated O-positive human serum, 2.08 mg/ml albumax, 0.013 mg/ml hypoxanthine, 1.17 mg/ml glucose, 0.18% NaHCO3, 0.031 M Hepes, 2.60 mM NaOH, and 0.043 mg/ml gentamicin) until the parasitemia reached 3-8%. Parasitemia was determined by checking at least 500 red blood cells from a Giemsa-stained blood smear. The Dd2 cultures along with tested O-positive red blood cells are centrifuged at room temperature at 2,000 rpm for 5 min using an Eppendorf centrifuge 581 OR with an A-4-81 rotor. The medium was aspirated off. For the compound screening, a parasite dilution at a 1% parasitemia and 1.0% hematocrit was created with screening medium (RPMI with L-glutamine, 4.16 mg/ml albumax II, 0.013 mg/ml hypoxanthine, 1.73 mg/ml glucose, 0.18% NaHCO3, 0.031M Hepes, 2.60 mM NaOH, and 0.043 mg/ml gentamicin). The suspension was gassed with 93% nitrogen, 4% carbon dioxide, and 3% oxygen and placed at 37° C. until needed. Using a liquid dispenser, 20 μl of screening medium was dispensed into 384-well, black, clear-bottom plates. With a PinTool, 100 nl of compounds dissolved in DMSO was transferred into the assay plates along with control compound (mefloquine). Next, 30 μl of the parasite suspension in screening medium was then dispensed into the assay plates such that the final parasitemia was 1%, and the final hematocrit was 1.0%. Final concentration of DMSO was 0.125%. Mefloquine at a final concentration of 20 μM and DMSO at a final concentration of 0.125% were used within the assay plates to serve as background and baseline controls, respectively. The assay plates were transferred to incubators (93% nitrogen, 4% carbon dioxide, and 3% oxygen during the 72-h incubation at 37° C.). Ten microliters of detection reagent consisting of 1 OX SYBR Green I (Invitrogen; supplied in 10,000× concentration) in lysis buffer (20 mM Tris-HCl, 5 mM EDTA, 0.16% Saponin wt/vol, 1.6% Triton X vol/vol) was dispensed into the assay plates. For optimal staining, the assay plates were left at room temperature for 24 h in the dark. The assay plates were read by using an Envision (PerkinElmer) reader, with 505 dichroic mirrors with 485-nm excitation and 530-nm emission settings, and the plate reads were from the bottom.
For the compound `COc1ccc2c3c([nH]c2c1)[C@H](CO)NCC31CCN(C(=O)Nc2ccccc2F)CC1` [Compound 26, (R)-N-(2-fluorophenyl)-1′-(hydroxymethyl)-7′-methoxy-1′,2′,3′,9′-tetrahydrospiro [piperidine-4,4′-pyrido[3,4-b]indole]-1-carboxamide], the EC50 worked out at 1330 nM. On to `COc1ccc2c3c([nH]c2c1)[C@H](CO)N(C(C)=O)CC31CCN(CCc2ccccc2F)CC1` [Compound 27, (R)-1-(1-(2-fluorophenethyl)-1′-(hydroxymethyl)-7′-methoxyspiro[piperidine-4,4′-pyrido[3,4-b]indol]-2′(1′H,3′H,9′H)-yl) ethanone], for which the EC50 came out at 2730 nM. As to `C=CCOC(=O)N1CC2(CCN(C(=O)Oc3ccc([N+](=O)[O-])cc3)CC2)c2c([nH]c3cc(OC)ccc23)[C@@H]1CO` [Compound 28, (R)-2′-allyl 1-(4-nitrophenyl) 1′-(hydroxymethyl)-7′-methoxy-3′,9′-dihydrospiro[piperidine-4,4′-pyrido[3,4-b]indole]-1,2′(1′H)-dicarboxylate], the EC50 came to 7140 nM. Turning to `COc1ccc2c3c([nH]c2c1)[C@H](C)NCC31CCN(C(=O)OC(C)(C)C)CC1` [Compound 30, (S)-tert-butyl 7′-methoxy-1′-methyl-1′,2′,3′,9′-tetrahydrospiro[piperidine-4,4′-pyrido[3,4-b]indole]-1-carboxylate], the EC50 amounted to 7440 nM. Consider `COc1ccc2c3c([nH]c2c1)[C@H](CN(C)C)N(C(C)=O)CC31CCN(C(=O)Nc2ccccc2F)CC1` [Compound 32, (S)-2′-acetyl-1′-((dimethylamino)methyl)-N-(2-fluoropheny1)-7′-methoxy-1′,2′,3′,9′-tetrahydrospiro[piperidine-4,4′-pyrido[3,4-b]indole]-1-carboxamide], for which the EC50 was found to be 485 nM. Still for that read-out and setting: the result for `COc1ccc2c3c([nH]c2c1)[C@H](CO)N(C(=O)C1CC1)CC31CCN(C(=O)Nc2ccccc2F)CC1` [Compound 33, (R)-2′-(cyclopropanecarbonyl)-N-(2-fluorophenyl)-1′-(hydroxymethyl)-7′-methoxy-1′,2′,3′,9′-tetrahydrospiro[piperidine-4,4′-pyrido[3,4-b]indole]-1-carboxamide] reads 2980 nM; that for `COc1ccc2c3c([nH]c2c1)[C@H](C)N(C(C)=O)CC31CCN(C(=O)OC(C)(C)C)CC1` [Compound 34, (S)-tert-butyl 2′-acetyl-7′-methoxy-1′-methyl-1′,2′,3′,9′-tetrahydrospiro[piperidine-4,4′-pyrido[3,4-b]indole]-1-carboxylate], 3770 nM. The same measure, in the same setting: in the case of `COc1ccc2c3c([nH]c2c1)[C@H](CO)N(C(C)=O)CC31CCN(C(=O)Nc2ccccc2)CC1` [Compound 35, (R)-2′-acetyl-1′-(hydroxymethyl)-7′-methoxy-N-phenyl-1′,2′,3′,9′-tetrahydrospiro[piperidine-4,4′-pyrido[3,4-b]indole]-1-carboxamide] it was 175 to 410 nM; in that of `CCCC(=O)N1CC2(CCN(C(=O)Nc3ccccc3F)CC2)c2c([nH]c3cc(OC)ccc23)[C@@H]1CO` [Compound 36, (R)-2′-butyryl-N-(2-fluorophenyl)-1′-(hydroxymethyl)-7′-methoxy-1′,2′,3′,9′-tetrahydrospiro[piperidine-4,4′-pyrido[3,4-b]indole]-1-carboxamide], 423 nM; in that of `COc1ccc2c3c([nH]c2c1)[C@H](CO)N(C(C)=O)CC31CCN(C(=O)Nc2cccc(F)c2)CC1` [Compound 37, (R)-2′-acetyl-N-(3-fluorophenyl)-1′-(hydroxymethyl)-7′-methoxy-1′,2′,3′,9′-tetrahydrospiro[piperidine-4,4′-pyrido[3,4-b]indole]-1-carboxamide], 577 nM. With `COc1ccc2c3c([nH]c2c1)[C@H](CO[Si](C)(C)C(C)(C)C)N(C(C)=O)CC31CCN(Cc2ccccc2F)CC1` [Compound 38, (R)-1-(1′-(((tert-butyldimethylsilyl)oxy)methyl)-1-(2-fluorobenzyl)-7′-methoxyspiro[piperidine-4,4′-pyrido[3,4-b]indol]-2′(1′H,3′H,9′H)-yl)ethanone], the EC50 is 809 nM. In the case of `COc1ccc2c3c([nH]c2c1)[C@H](CO)N(C(C)=O)CC31CCN(C(=O)Cc2ccccc2F)CC1` [Compound 39], the EC50 was found to be 752 nM. For the compound `COc1ccc2c3c([nH]c2c1)[C@H](CO[Si](C)(C)C(C)(C)C)NCC31CCN(C(=O)Nc2ccccc2F)CC1` [Compound 40, (R)-1′-(((tert-butyldimethylsilyl)oxy)methyl)-N-(2-fluorophenyl)-7′-methoxy-1′,2′,3′,9′-tetrahydrospiro[piperidine-4,4′-pyrido[3,4-b]indole]-1-carboxamide], the EC50 came to 1220 nM. As to `COc1ccc2c3c([nH]c2c1)[C@H](CO)N(C(C)=O)CC31CCN(C(=O)c2ccccc2F)CC1` [Compound 41, (R)-1-(1-(2-fluorobenzoyl)-1′-(hydroxymethyl)-7′-methoxyspiro[piperidine-4,4′-pyrido[3,4-b]indol]-2′(1′H,3′H,9′H)-yl)ethanone], the EC50 amounted to 17500 nM. `COc1ccc2c3c([nH]c2c1)[C@H](CO)N(CCc1ccccc1)CC31CCN(C(=O)Nc2ccccc2F)CC1` [Compound 42, (R)-N-(2-fluorophenyl)-1′-(hydroxymethyl)-7′-methoxy-2′-phenethyl-1′,2′,3′,9′-tetrahydrospiro[piperidine-4,4′-pyrido[3,4-b]indole]-1-carboxamide]: the EC50 was 1750 to 1900 nM. Take `COc1ccc2c3c([nH]c2c1)[C@H](CO)N(C(C)=O)CC31CCN(C(=O)NC2CCCCC2)CC1` [Compound 43, (R)-2′-acetyl-N-cyclohexy1-1′-(hydroxymethyl)-7′-methoxy-1′,2′,3′,9′-tetrahydrospiro[piperidine-4,4′-pyrido[3,4-b]indole]-1-carboxamide]: the EC50 lay in the range of 3370 to 5220 nM. `COc1ccc2c3c([nH]c2c1)[C@H](CO)N(C(C)=O)CC31CCN(S(=O)(=O)Cc2ccccc2F)CC1` [Compound 44, (R)-1-(1-((2-fluorobenzyl)sulfonyl)-1′-(hydroxymethyl)-7′-methoxyspiro[piperidine-4,4′-pyrido[3,4-b]indol]-2′(1′H,3′H,9′H)-yl)ethanone]: the EC50 lay within 1600 to 3280 nM. With `COc1ccc2c3c([nH]c2c1)[C@H](CO)N(C(C)=O)CC31CCN(C(=O)Nc2cccc(F)c2F)CC1` [Compound 45, (R)-2′-acetyl-N-(2,3-difluorophenyl)-1′-(hydroxymethyl)-7′-methoxy-1′,2′,3′,9′-tetrahydrospiro[piperidine-4,4′-pyrido[3,4-b]indole]-1-carboxamide], the EC50 lay in the range of 44 to 131 nM. For the compound `COc1ccc2c3c([nH]c2c1)[C@H](CN1CCOCC1)N(C(C)=O)CC31CCN(C(=O)OC(C)(C)C)CC1` [Compound 46, (S)-tert-butyl 2′-acetyl-7′-methoxy-1′-(morpholinomethyl)-1′,2′,3′,9′-tetrahydrospiro[piperidine-4,4′-pyrido[3,4-b]indole]-1-carboxylate], the EC50 lay in the range of 2430 to 6330 nM. Regarding `COc1ccc2c3c([nH]c2c1)[C@@H]1COCC(=O)N1CC31CCN(C(=O)Nc2ccccc2F)CC1` [Compound 47, (R)-N-(2-fluorophenyl)-10-methoxy-4-oxo-1,3,4,6,12,12b-hexahydrospiro[[1,4]oxazino[4′,3′:1 ,2]pyrido[3,4-b]indole-7,4′-piperidine]-1′-carboxamide], the EC50 was 2230 to 3230 nM.

For the compound `COc1ccc2c3c([nH]c2c1)[C@H](C)N(C(C)=O)CC31CCN(C(=O)Nc2ccccc2F)CC1` [Compound 48, (S)-2-acetyl-N-(2-fluorophenyl)-7′-methoxy-1'-methyl-1′,2′,3′,9′-tetrahydrospiro[piperidine-4,4′-pyrido[3,4-b]indole]-1-carboxamide], the EC50 lay within 214 to 236 nM. In the case of `CCCN1CC2(CCN(C(=O)Nc3ccccc3F)CC2)c2c([nH]c3cc(OC)ccc23)[C@@H]1CO` [Compound 49, (R)-N-(2-fluorophenyl)-1′-(hydroxymethyl)-7′-methoxy-2′-propyl-1′,2′,3′,9′-tetrahydrospiro[piperidine-4,4′-pyrido[3,4-b]indole]-1-carboxamide], the EC50 was 2390 to 2920 nM.

Staying with this test, now noted: read-out: EC^50 Dd2.
As to `COc1ccc2c3c([nH]c2c1)[C@H](CO[Si](C)(C)C(C)(C)C)N(C(C)=O)CC31CCN(C(=O)OC(C)(C)C)CC1` [Compound 29, (R)-tert-butyl 2′-acetyl-1′-(((tert-butyldimethylsilyl)oxy)methyl)-7′-methoxy-1′,2′,3′,9′-tetrahydrospiro[piperidine-4,4′-pyrido[3,4-b]indole]-1-carboxylate], the EC50 was found to be 1390 nM.
